From article PMC9226124, “Macrocycle-stabilization of its interaction with 14-3-3 increases plasma membrane localization and activity of CFTR” (Nature Communications, 2022)
Several values for one entry are separate records, joined by “and”; a condition that tells them apart may be missing. Equal entries are not always repeated. Blank lines part the entries; values can stand above or below the compound they belong to.

What was measured:
[1] = target: T1, 14-3-3β/CFTRpS753pS768 complex (Homo sapiens, UniProt P13569+P31946); assay: Dose-response fluorescence polarization (FP) assay, compound titration; format: binding; conditions: for EC50: 14-3-3β 10 μM, labeled CFTRpS753pS768 100 nM, read-out: EC50; for FP signal: With 14-3-3
T1 construct: His6 (cleaved yes); made in house; peptide synthetic
Protocol: The 14-3-3β concentration used for the FP screening assay was 10 μM (dashed line). c HTS FP assay of the Cyclenium library. The samples contain 100 nM of FITC-CFTR_pS753pS768 peptide, 10 μM 14-3-3β, and 50 μM compound. FC-A (100 µM) was added as a positive control and DMSO as the negative control. Hit compounds are defined as a polarization increase which is higher than 20% of the response of FC-A. Red squares are compounds that appeared positive in the negative control without 14-3-3. […] Background polarization was subtracted from all values, n = 3 technical replicates. Compounds selected for further analysis are indicated with an asterisk. e Polarization in the absence of 14-3-3. […] Source data are provided as a Source Data file. […]
The FITC-labeled peptides were dissolved in FP buffer (10 mM HEPES pH 7.4, 150 mM NaCl, 0.1% Tween20, 1 mg/mL BSA) to a final concentration of 100 nM or 10 nM. For the dose-response assays, a 14-3-3β concentration of 10 μM was used while titrating the compounds in a two-times dilution series and, for the other assays, a dilution series of 14-3-3β was made with constant concentration of compound. The dilution series were made in 384 Corning Black Round Bottom well plates and their polarization was measured with a Tecan Infinite F500 plate reader (ex. = 485 nm, em. = 535 nm). The method of fitting of the curves was: “log(agonist) vs. response – Variable slope (four parameters)” from GraphPad Prism. The equation is Y = Bottom + (Top-Bottom)/(1 + 10^((LogEC50-X)*HillSlope)).

[2] = target: T1, 14-3-3β/CFTRpS753pS768 complex; assay: FP assay, 14-3-3β titration at constant compound concentration (apparent KD); format: binding
Protocol: FC-A (100 µM) was added as a positive control and DMSO as the negative control. […] Background polarization was subtracted from all values, n = 3 technical replicates. […] Source data are provided as a Source Data file. […]
The FITC-labeled peptides were dissolved in FP buffer (10 mM HEPES pH 7.4, 150 mM NaCl, 0.1% Tween20, 1 mg/mL BSA) to a final concentration of 100 nM or 10 nM. […] The dilution series were made in 384 Corning Black Round Bottom well plates and their polarization was measured with a Tecan Infinite F500 plate reader (ex. = 485 nm, em. = 535 nm). The method of fitting of the curves was: “log(agonist) vs. response – Variable slope (four parameters)” from GraphPad Prism. The equation is Y = Bottom + (Top-Bottom)/(1 + 10^((LogEC50-X)*HillSlope)).
from the hit validation library.
f the compound, 100 µM FC-A, or both compound and FC-A, 100 µM each. Background polarization was subtracted f
rom all values, n=3 technical replicates.
Source data are provided as a Source Data file.

T1 sequence (P31946 whole entry): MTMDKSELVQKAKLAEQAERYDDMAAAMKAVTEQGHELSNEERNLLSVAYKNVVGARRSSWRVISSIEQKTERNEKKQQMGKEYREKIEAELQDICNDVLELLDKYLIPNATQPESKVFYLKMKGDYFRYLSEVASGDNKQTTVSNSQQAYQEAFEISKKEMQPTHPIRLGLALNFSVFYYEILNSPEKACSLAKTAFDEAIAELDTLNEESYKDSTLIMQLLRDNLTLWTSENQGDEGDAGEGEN
T1 sequence (P13569 747-774 limits assumed): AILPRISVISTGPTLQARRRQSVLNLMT

EC50 [1]: 36.1 µM and 36 µM
FP signal ([1]; compound 476.8 pM): 4
FP signal ([1]; compound 953.7 pM): 5
FP signal ([1]; compound 1.90735e-9 M): 5
FP signal ([1]; compound 3.8147e-9 M): 7
FP signal ([1]; compound 7.6294e-9 M): 4
FP signal ([1]; compound 1.52588e-8 M): 7
FP signal ([1]; compound 3.05176e-8 M): 6
FP signal ([1]; compound 6.10352e-8 M): 5
FP signal ([1]; compound 1.2207e-7 M): 5
FP signal ([1]; compound 2.44141e-7 M): 7
FP signal ([1]; compound 4.88281e-7 M): 7
FP signal ([1]; compound 9.76563e-7 M): 7
FP signal ([1]; compound 1.95313e-6 M): 6
FP signal ([1]; compound 3.90625e-6 M): 12
FP signal ([1]; compound 7.8125e-6 M): 27
FP signal ([1]; compound 1.5625e-5 M): 52
FP signal ([1]; compound 3.125e-5 M): 122
FP signal ([1]; compound 6.25e-5 M): 193
FP signal ([1]; compound 0.000125 M): 244
FP signal ([1]; compound 0.00025 M): 263
FP signal ([1]; compound 0.0005 M): 257
FP signal ([1]; compound 0.001 M): 271
stabilization factor (increase of apparent affinity of CFTR peptide to 14-3-3) ([2]; 100 μM compound, vs […] μM without compound): more than 300 x
SMILES: N=C(N)NCCCC1NCc2ccccc2Sc2ccccc2CNC(=O)C(Cc2ccc(O)cc2)NC(=O)C(CCCN)NC1=O (stereo not drawn) [CY007424]

EC50 [1]: 267 µM
FP signal ([1]; compound 476.8 pM): 3
FP signal ([1]; compound 953.7 pM): 3
FP signal ([1]; compound 1.90735e-9 M): 4
FP signal ([1]; compound 3.8147e-9 M): 4
FP signal ([1]; compound 7.6294e-9 M): 3
FP signal ([1]; compound 1.52588e-8 M): 5
FP signal ([1]; compound 3.05176e-8 M): 4
FP signal ([1]; compound 6.10352e-8 M): 5
FP signal ([1]; compound 1.2207e-7 M): 4
FP signal ([1]; compound 2.44141e-7 M): 4
FP signal ([1]; compound 4.88281e-7 M): 5
FP signal ([1]; compound 9.76563e-7 M): 6
FP signal ([1]; compound 1.95313e-6 M): 6
FP signal ([1]; compound 3.90625e-6 M): 6
FP signal ([1]; compound 7.8125e-6 M): 7
FP signal ([1]; compound 1.5625e-5 M): 9
FP signal ([1]; compound 3.125e-5 M): 16
FP signal ([1]; compound 6.25e-5 M): 33
FP signal ([1]; compound 0.000125 M): 73
FP signal ([1]; compound 0.00025 M): 143
FP signal ([1]; compound 0.0005 M): 201
FP signal ([1]; compound 0.001 M): 252
Fluorescence polarization signal, 14-3-3β titration ([2]; CY compound (100 μM), 14-3-3β concentration 119.2 pM): -2.333
Fluorescence polarization signal, 14-3-3β titration ([2]; CY compound (100 μM), 14-3-3β concentration 2.44141e-7 M): 10.6667 and 8.667
Fluorescence polarization signal, 14-3-3β titration ([2]; CY compound (100 μM), 14-3-3β concentration 4.88281e-7 M): 15.6667 and 13.6667
Fluorescence polarization signal, 14-3-3β titration ([2]; CY compound (100 μM), 14-3-3β concentration 9.76563e-7 M): 27.6667 and 26.6667 and 29.6667
Fluorescence polarization signal, 14-3-3β titration ([2]; CY compound (100 μM), 14-3-3β concentration 1.95313e-6 M): 40.6667 and 36.6667
Fluorescence polarization signal, 14-3-3β titration ([2]; CY compound (100 μM), 14-3-3β concentration 3.90625e-6 M): 51.6667 and 49.6667 and 46.6667
Fluorescence polarization signal, 14-3-3β titration ([2]; CY compound (100 μM), 14-3-3β concentration 7.8125e-6 M): 63.6667 and 58.6667 and 54.6667
Fluorescence polarization signal, 14-3-3β titration ([2]; CY compound (100 μM), 14-3-3β concentration 1.5625e-5 M): 72.6667 and 68.6667 and 66.6667
Fluorescence polarization signal, 14-3-3β titration ([2]; CY compound (100 μM), 14-3-3β concentration 3.125e-5 M): 82.6667 and 80.6667
Fluorescence polarization signal, 14-3-3β titration ([2]; CY compound (100 μM), 14-3-3β concentration 6.25e-5 M): 93.6667 and 92.6667 and 96.6667
Fluorescence polarization signal, 14-3-3β titration ([2]; CY compound (100 μM), 14-3-3β concentration 0.000125 M): 115.667 and 110.667 and 114.667
Fluorescence polarization signal, 14-3-3β titration ([2]; CY compound (100 μM), 14-3-3β concentration 0.00025 M): 126.667 and 124.667 and 128.667
Fluorescence polarization signal, 14-3-3β titration ([2]; CY compound (100 μM), 14-3-3β concentration 0.0005 M): 148.667 and 147.667
Fluorescence polarization signal, 14-3-3β titration ([2]; FC-A + CY compound, 14-3-3β concentration 1.52588e-8 M): 4.333 and 2.333 and 3.333
Fluorescence polarization signal, 14-3-3β titration ([2]; FC-A + CY compound, 14-3-3β concentration 6.10352e-8 M): 10.3333 and 8.333
Fluorescence polarization signal, 14-3-3β titration ([2]; FC-A + CY compound, 14-3-3β concentration 1.2207e-7 M): 16.3333 and 18.3333 and 15.3333
Fluorescence polarization signal, 14-3-3β titration ([2]; FC-A + CY compound, 14-3-3β concentration 2.44141e-7 M): 30.3333 and 31.3333 and 29.3333
Fluorescence polarization signal, 14-3-3β titration ([2]; FC-A + CY compound, 14-3-3β concentration 4.88281e-7 M): 47.3333 and 45.3333 and 44.3333
Fluorescence polarization signal, 14-3-3β titration ([2]; FC-A + CY compound, 14-3-3β concentration 9.76563e-7 M): 71.3333 and 70.3333 and 66.3333
Fluorescence polarization signal, 14-3-3β titration ([2]; FC-A + CY compound, 14-3-3β concentration 1.95313e-6 M): 93.3333 and 85.3333
Fluorescence polarization signal, 14-3-3β titration ([2]; FC-A + CY compound, 14-3-3β concentration 3.90625e-6 M): 110.333 and 108.333 and 107.333
Fluorescence polarization signal, 14-3-3β titration ([2]; FC-A + CY compound, 14-3-3β concentration 7.8125e-6 M): 119.333 and 118.333 and 122.333
Fluorescence polarization signal, 14-3-3β titration ([2]; FC-A + CY compound, 14-3-3β concentration 1.5625e-5 M): 129.333 and 131.333 and 128.333
Fluorescence polarization signal, 14-3-3β titration ([2]; FC-A + CY compound, 14-3-3β concentration 3.125e-5 M): 139.333 and 142.333 and 140.333
Fluorescence polarization signal, 14-3-3β titration ([2]; FC-A + CY compound, 14-3-3β concentration 6.25e-5 M): 148.333 and 150.333
Fluorescence polarization signal, 14-3-3β titration ([2]; FC-A + CY compound, 14-3-3β concentration 0.000125 M): 156.333 and 152.333
Fluorescence polarization signal, 14-3-3β titration ([2]; FC-A + CY compound, 14-3-3β concentration 0.00025 M): 161.333 and 163.333 and 160.333
Fluorescence polarization signal, 14-3-3β titration ([2]; FC-A + CY compound, 14-3-3β concentration 0.0005 M): 171.333 and 173.333
SMILES: N=C(N)NCCCC1NC(=O)C(CCCCN)NCc2ccccc2Sc2ccccc2CNC(=O)C(Cc2ccc(O)cc2)NC1=O (stereo not drawn) [CY001951]
